Reference: article PMC12643509, “High-throughput screens identify genotype-specific therapeutics for channelopathies” (JCI Insight, 2025)
Values joined by “and” are separate entries in the source; they are usually repeats but may differ in a detail not shown here. Equal entries are not always repeated.

Tests used:
C57BL/6J mice = experiment: Mouse ECG analysis (cardiac safety); assay type: in vivo; set-up: QTc / QT: unit not given here
WT Kv11.1 = WT Kv11.1 (Homo sapiens, UniProt Q12809); experiment: Whole-cell patch-clamp electrophysiology, drug in bath solution, WT; assay type: cell-based; set-up: expressed in transfected cells; Activation tail currents / Steady-state currents / Time constants of activation (τ): unit not given here; conditions: for Figure 5B value per cell vs Time / Figure 4B value per cell vs Voltage (mV): individual replicates; for peak tail currents (I-V relationship): evacetrapib 15 μmol/L in bath
Description: Peak stea dy-sta te current was
Tail current was fit with a […]

[1] = mouse ECG, individual animals (Figure S5)
[2] = mouse ECG, individual animals (Figure S5), in ms (unit assumed)

WT Kv11.1, sequence (Q12809 whole entry): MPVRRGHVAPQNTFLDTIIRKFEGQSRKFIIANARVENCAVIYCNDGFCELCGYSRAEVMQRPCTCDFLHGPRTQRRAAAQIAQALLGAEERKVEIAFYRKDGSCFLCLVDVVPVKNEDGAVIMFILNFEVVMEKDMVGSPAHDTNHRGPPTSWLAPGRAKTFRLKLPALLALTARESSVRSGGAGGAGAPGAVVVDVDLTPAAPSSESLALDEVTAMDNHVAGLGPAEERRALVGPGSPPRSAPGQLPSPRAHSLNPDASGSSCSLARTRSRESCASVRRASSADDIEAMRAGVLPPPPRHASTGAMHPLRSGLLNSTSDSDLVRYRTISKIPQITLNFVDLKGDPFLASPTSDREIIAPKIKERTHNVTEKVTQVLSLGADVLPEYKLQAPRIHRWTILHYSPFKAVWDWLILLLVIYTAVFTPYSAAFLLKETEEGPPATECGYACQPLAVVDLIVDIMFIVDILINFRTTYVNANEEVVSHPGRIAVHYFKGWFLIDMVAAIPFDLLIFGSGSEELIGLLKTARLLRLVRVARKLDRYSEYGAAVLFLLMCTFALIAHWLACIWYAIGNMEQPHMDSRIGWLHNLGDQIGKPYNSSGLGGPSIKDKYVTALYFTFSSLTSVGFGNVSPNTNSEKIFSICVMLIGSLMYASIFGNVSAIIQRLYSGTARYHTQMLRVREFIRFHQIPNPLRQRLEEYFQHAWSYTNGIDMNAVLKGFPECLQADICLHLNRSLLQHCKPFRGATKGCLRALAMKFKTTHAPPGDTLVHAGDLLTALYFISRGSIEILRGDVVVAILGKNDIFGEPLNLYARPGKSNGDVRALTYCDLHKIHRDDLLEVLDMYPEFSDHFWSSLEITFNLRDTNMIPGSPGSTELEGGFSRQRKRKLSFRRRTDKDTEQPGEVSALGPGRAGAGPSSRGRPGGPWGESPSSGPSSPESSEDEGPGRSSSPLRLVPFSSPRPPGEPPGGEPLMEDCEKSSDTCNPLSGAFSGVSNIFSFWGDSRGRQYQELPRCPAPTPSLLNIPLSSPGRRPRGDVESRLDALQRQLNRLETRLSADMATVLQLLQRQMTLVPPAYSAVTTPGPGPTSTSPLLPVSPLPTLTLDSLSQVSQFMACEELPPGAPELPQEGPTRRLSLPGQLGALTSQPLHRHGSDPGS

Q: With Cc1cc(C)c2c(c1)[C@@H](N(Cc1cc(C(F)(F)F)cc(C(F)(F)F)c1)c1nnn(C)n1)CCCN2C[C@H]1CC[C@H](C(=O)O)CC1 [Evacetrapib, evacetrapib] as the compound, how does the “ECG parameters, including the QT interval” value (C57BL/6J mice; mice, 40 mg/kg intraperitoneally, 30 minutes post-drug) read?
A: Its value is “No significant differences”.

Q: And the P duration (C57BL/6J mice; [1])?
A: Its P duration is 13.6667 and 11.3333 and 10.6667 and 11.6667 and 9 and 13.3333 and 12.3333.

Q: What about the PR interval (C57BL/6J mice; [1]) of the same compound?
A: The PR interval was 56.3333 and 38.3333 and 42.3333 and 46.6667 and 44.6667 and 41.6667.

Q: What about the QT (C57BL/6J mice; [1]) of the same compound?
A: Its QT is 31.3333 and 39.3333 and 34 and 35.3333 and 42.3333.

Q: And the QTc (C57BL/6J mice; [1])?
A: The QTc was 30.5782 and 35.4177 and 28.9078 and 33.1412 and 36.2561 and 31.0292 and 33.811.

Q: What about the QRS (C57BL/6J mice; [2]) of the same compound?
A: Its QRS is 12 and 11 and 10.6667 and 10.3333.

Q: What about the RR (C57BL/6J mice; [2]) of the same compound?
A: The RR was 105 and 123.333 and 138.333 and 113.667 and 136.333 and 129.667 and 135.333.

Q: And the “Figure 5B value per cell vs Time” value (WT Kv11.1; Time 480)?
A: The value was -0.4681 and -0.2647 and -0.2507 and -0.1972 and -0.3239 and -0.2271.

Q: What about the “Figure 5B value per cell vs Time” value (WT Kv11.1; Time 540) of the same compound?
A: The value was -0.5284 and -0.3222 and -0.285 and -0.2169 and -0.3896 and -0.2816.

Q: And the “Figure 5B value per cell vs Time” value (WT Kv11.1; Time 600)?
A: The value was -0.588 and -0.3629 and -0.3374 and -0.2423 and -0.4551 and -0.3284.

Q: And the “Figure 5B value per cell vs Time” value (WT Kv11.1; Time 660)?
A: The value was -0.6518 and -0.4077 and -0.3785 and -0.3017 and -0.5218 and -0.3806.

Q: And the “Figure 5B value per cell vs Time” value (WT Kv11.1; Time 720)?
A: The value was -0.7017 and -0.4517 and -0.4377 and -0.3271 and -0.5811 and -0.4215.

Q: And the “Figure 5B value per cell vs Time” value (WT Kv11.1; Time 780)?
A: The value was -0.7446 and -0.5087 and -0.4704 and -0.3371 and -0.6312 and -0.4754.

Q: What about the “Figure 5B value per cell vs Time” value (WT Kv11.1; Time 840) of the same compound?
A: Its value is -0.7775 and -0.545 and -0.522 and -0.4074 and -0.6797 and -0.5211.

Q: What about the “Figure 5B value per cell vs Time” value (WT Kv11.1; Time 900) of the same compound?
A: Its value is -0.7865 and -0.5874 and -0.5479 and -0.435 and -0.735 and -0.566.

Q: What about the “Figure 5B value per cell vs Time” value (WT Kv11.1; Time 960) of the same compound?
A: Its value is -0.833 and -0.6254 and -0.582 and -0.4724 and -0.7754 and -0.6113.

Q: What about the “Figure 5B value per cell vs Time” value (WT Kv11.1; Time 1020) of the same compound?
A: The value was -0.8444 and -0.6633 and -0.6057 and -0.489 and -0.8272 and -0.6494.

Q: And the “Figure 5B value per cell vs Time” value (WT Kv11.1; Time 1080)?
A: Its value is -0.8739 and -0.6879 and -0.652 and -0.5518 and -0.8519 and -0.6869.

Q: What about the “Figure 5B value per cell vs Time” value (WT Kv11.1; Time 1140) of the same compound?
A: Its value is -0.894 and -0.7265 and -0.6824 and -0.5792 and -0.8903 and -0.723.

Q: And the “Figure 5B value per cell vs Time” value (WT Kv11.1; Time 1200)?
A: Its value is -0.8957 and -0.756 and -0.7067 and -0.6036 and -0.9115 and -0.75.

Q: What about the “Figure 5B value per cell vs Time” value (WT Kv11.1; Time 1260) of the same compound?
A: The value was -0.9162 and -0.7845 and -0.7409 and -0.6519 and -0.9274 and -0.7716.

Q: What about the “Figure 5B value per cell vs Time” value (WT Kv11.1; Time 1320) of the same compound?
A: The value was -0.9293 and -0.808 and -0.7659 and -0.6564 and -0.944 and -0.7966.

Q: And the “Figure 5B value per cell vs Time” value (WT Kv11.1; Time 1380)?
A: The value was -0.9321 and -0.8297 and -0.7811 and -0.6653 and -0.9508 and -0.8202.

Q: What about the “Figure 5B value per cell vs Time” value (WT Kv11.1; Time 1440) of the same compound?
A: Its value is -0.9456 and -0.8515 and -0.7941 and -0.6916.

Q: What about the “Figure 4B value per cell vs Voltage (mV)” value (WT Kv11.1; Voltage 0 mV) of the same compound?
A: Its value is 11.8726 and 11.4943 and 10.3496 and 10.9094 and 10.8921.

Q: And the “Figure 4B value per cell vs Voltage (mV)” value (WT Kv11.1; Voltage 10 mV)?
A: The value was 8.653 and 8.735 and 8.112 and 8.594 and 8.227.

Q: What about the “Figure 4B value per cell vs Voltage (mV)” value (WT Kv11.1; Voltage 20 mV) of the same compound?
A: The value was 6.045 and 6.561 and 6.2 and 6.536 and 6.09.

Q: What about the “Figure 4B value per cell vs Voltage (mV)” value (WT Kv11.1; Voltage 30 mV) of the same compound?
A: Its value is 4.263 and 4.813 and 4.589 (2×) and 4.855.

Q: And the “Figure 4B value per cell vs Voltage (mV)” value (WT Kv11.1; Voltage 40 mV)?
A: The value was 2.999 and 3.548 and 3.503 and 3.618 and 3.396.

Q: And the “Figure 4B value per cell vs Voltage (mV)” value (WT Kv11.1; Voltage 50 mV)?
A: Its value is 2.259 and 2.688 and 2.663 and 2.777 and 2.566.

Q: And the “Figure 4B value per cell vs Voltage (mV)” value (WT Kv11.1; Voltage 60 mV)?
A: The value was 1.878 and 2.068 and 2.124 and 2.21 and 2.021.

Q: And the “Figure 4B value per cell vs Voltage (mV)” value (WT Kv11.1; Voltage 70 mV)?
A: The value was 1.522 and 1.6561 and 1.697 and 1.79 and 1.58.

Q: What about the “peak tail currents (I-V relationship)” value (WT Kv11.1; Voltage (mV) 0, WT, individual cells) of the same compound?
A: The value was 108.731 and 68.2281 and 79.8578 and 105.108 and 89.4676 and 63.9693 and 63.3317 and 23.2206 and 38.9777 and 18.6844.

Q: And the Steady-state currents (WT Kv11.1; Voltage (mV) 0, WT, evacetrapib 15 μmol/L, individual cells)?
A: The Steady-state currents was 40.4395 and 14.6593 and 23.6253 and 10.7424 and 12.2745 and 25.059 and 13.3557 and 25.8785 and 25.7792 and 48.7186 and 28.6917.

Q: What about the Activation tail currents (WT Kv11.1; Voltage (mV) 0, tail at –40 mV, WT, evacetrapib 15 μmol/L, individual cells) of the same compound?
A: Its Activation tail currents is 45.6244 and 25.343 and 54.0146 and 31.4245 and 29.2272 and 68.7383 and 34.1486 and 20.8925 and 71.2996 and 102.774 and 57.7045.

Q: And the “peak tail currents (I-V relationship)” value (WT Kv11.1; Voltage (mV) 10, WT, individual cells)?
A: Its value is 93.1489 and 60.1622 and 69.939 and 86.7676 and 75.6735 and 55.3784 and 40.7784 and 17.5354 and 25.5833 and 12.8315.
